The results in this text go back to ChEMBL document CHEMBL1149954, “Synthesis of methyl -sialosides N-substituted with large alkanoyl groups, and investigation of their inhibition of agglutination of erythrocytes by influenza A virus” (Bioorg Med Chem Lett, 1993).

Assay [1] is described as follows: Compound was tested for its ability to displace a fluorescent ligand from the active site of bromelaine-cleaved hemagglutininin (BHA). Further details: species or system Gallus gallus.
Assay [2] in a line: Compound was tested for the inhibition of hemagglutinination when incorporated into liposomes (Hemagglutinination inhibition (HAI) assay); no inhibition took place.
The species entered for another assay is Gallus gallus. As to the kind of experiment: Compound was tested for its ability to displace a fluorescent ligand from the active site of bromelaine-cleaved hemagglutininin (BHA) at concentrations above 5 mM; no displacement was observed.

As a reminder, the Kd is a measure of binding affinity in units of concentration. Higher therefore signals lower affinity. Usually Ki stands for the equilibrium dissociation constant of an inhibitor or competing ligand from its target. A lower Ki goes with higher affinity.

Compound `COC(=O)C1(OC)CC(O)C(NC(C)=O)C([C@H](O)[C@H](O)CO)O1` (stereo partly drawn) came in with a Kd in assay [1] of 2.8 mM. This counts as millimolar.
In assay [2], `CCCCCCCCCCCCCC(=O)NC1C(O)CC(OC)(C(=O)O)OC1[C@H](O)[C@H](O)CO` (stereo partly drawn) came in with an inhibitory constant (Ki) greater than 1 mM.
As to `CCCCCCCC(=O)NC1C(O)CC(OC)(C(=O)O)OC1[C@H](O)[C@H](O)CO` (stereo partly drawn), the Binding affinity result in the assay listed under Gallus gallus was “no displacement was observed”.
